Test results: US20160279190A1, “MODULATION OF AXON DEGENERATION” (GENENTECH, INC., priority 2008, published 2016)

Tested on: sympathetic neurons
Assay: toxin-induced degeneration of sympathetic neurons, MTT assay
Format: cell-based, rat
Conditions: 24 hour treatment with the toxin alone
Description: Cortical neurons plated for 3-4 days were treated with 300 nM vincristine, a microtubule destabilizer, for 6-72 hours. NGF withdrawal-induced apoptosis and degeneration were assayed between 4-36 hours after the final treatment. Apoptosis and degeneration were assayed using both the MTT assay and the lactate dehydrogenase assay. The MTT (3-(4,5-dimethylthiazol-2-yl)-2,5-diphenyltetrazolium bromide) assay measures cell viability based on mitochondrial function. MTT was added to a total of one tenth of the culture volume to each well and incubated at 37° C. with 5% CO2 for 90-120 minutes. The MTT-containing culture media was aspirated and the cells were resuspended in an equal volume of solubilization solution (10% triton X-100, 1 drop HCl, 50 mL isopropanol). Absorbance (570 and 690 nm) was read using a spectrophotometer. Lactate dehydrogenase (LDH) levels were assayed using a CytoTox non-radioactive LDH assay kit (Promega) to assess the amount of cell death in assays. Fifty μL of media from different treatment conditions were used according to the manufacturer's instructions. […]
Sympathetic cervical ganglia were dissected from postnatal day 1 Sprague-Dawley rats (Charles River Labs) and collected in a dish containing Ultraculture media (Lonza) with 5% fetal bovine serum (Invitrogen). […] The cell slurry was filtered over a […] cell strainer (Falcon) and cell number was counted. […]

CC[C@@]1(O)C(=O)OCc2c1cc1n(c2=O)Cc2cc3ccccc3nc2-1 [camptothecin]
% viability (normalized): 79%
